The text below walks through data of patent US10301308B2, “Azetidine derivatives for tau imaging” (Eli Lilly and Company, priority 2015, dated 2019).

In data set [1] the target is PHF (tau from Alzheimer's disease donors) (Homo sapiens, UniProt P10636). Briefly: Competition radioligand binding versus [18F]AV-1451 on PHF (Ki determination). The text has this: Purified, soluble PHF is isolated from AD brain tissue using a protocol modified from the procedure described by Jicha, et al. (G. A. Jicha, A. O'Donnell, C. Weaver (1999) “Hierarchical phosphorylation of recombinant tau by the paired-helical filament-associated protein kinase is dependent on cyclic AMP-dependent protein kinase” J Neurochem. 72(1):214). Briefly, AD cortex is homogenized using a handheld Kinematica Polytron, followed by high pressure batch—gas expansion using a Parr Cell disruption bomb. Crude homogenate is centrifuged at 28 kg to pellet cell debris. Soluble PHF is isolated from the supernatant by affinity chromatography over an Affigel-10 column on which the tau antibody MCI, which recognizes a pathological conformation of tau, has been immobilized (G. A. Jicha, R. Bowser, I. G. Kazam (1997), “Alz-50 and MC-1, a new monoclonal antibody raised to paired helical filaments, recognize conformational epitopes on recombinant tau” J Neurosci Res. 48(2): 12.)
Chain of PHF (tau from Alzheimer's disease donors) (P10636 623-695 limits assumed): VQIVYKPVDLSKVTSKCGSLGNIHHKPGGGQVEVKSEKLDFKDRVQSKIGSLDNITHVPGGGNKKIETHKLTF
The IC50 (i.e. the molar concentration of competing ligand which reduces the specific binding of a radioligand by 50%) for the unlabeled compound is determined by competition radioligand binding, in which the binding of [18F]AV-1451 to PHF is competed with unlabeled compound at various concentrations. […]

Data set [2] in a line: Mouse PET/CT time activity curves. It is filed as in vivo, CD-1 wild type mice. Particulars: mouse PET/CT time activity curves. How it is done: Dynamic Micro-Positron Emission Tomography (mPET) images are obtained from CD-1 wild type mice using 3-(3-[18F]-fluoroazetidin-1-yl)-8-methylbenzo[4,5]imidazo[1,2-a]pyridine. Micro-Computed Tomography (mCT) of each subject is used as anatomical reference for image analysis. Biodistribution of the tracer in brain, muscle, bone, liver, and kidney is assessed by generating Time Activity Curves (TAC) using the fused mPET/mCT images. An INVEON multimodality scanner (Siemens, Germany) is used for mPET/mCT. All animal work is performed in accordance with the University of Sciences Institutional Animal Care & Use Committee-approved procedures.
Animals are anesthetized with 3% isoflurane/97% oxygen and are placed on the scanner bed. A short high-resolution CT scan is first performed for anatomical registration, followed by a 120-minute PET scan. During the PET scan a water heating system is placed underneath the bed to help maintain the body temperature. Within 3 minutes after the beginning of the PET acquisition, the [18F]-labeled compound 3-(3-[18F]-fluoroazetidin-1-yl)-8-methylbenzo[4,5]imidazo[1,2-a]pyridine is administered to the animals via tail vein injection (250 uCi in a total volume of 200 uL saline). A PET image is generated for each minute of the acquisition time. Uptake of the tracer is obtained by visually drawing regions of interest based on the fused PET/CT images, and the corresponding activity values are determined using the INVEON Research Workplace software (Siemens, Germany). All values are represented as percent injected dose per gram (% ID/g).
The mouse PET/CT time activity curves of 3-(4-(2-[18F]-fluoroethyl)piperidin-1-yl)-8-methoxybenzo[4,5]imidazo[1,2-a]pyridine (T821) (See FIG. 9) and of 3-(4-[18F]-fluoropiperidin-1-yl)-8-methoxybenzo[4,5]imidazo[1,2-a]pyridine (T798) (See FIG. 10) are obtained as described in Assay Example 7 (T821 and T798 are recited in US2011/0182812). […] Therefore, when imaging with T821 and/or T798, the undesirable non-tau PET signals from the skull bones could interfere with desired tau signals from the brain cortex. Thus, in addition to the lack of selectivity for T821 and T798, these compounds would further represent poor candidates for human brain tau PET tracers because of the interfering radioactivity signal from bone. […] The advantageous properties of Compound 8 are useful to provide enhanced tau PET imaging in humans. This combination of critical properties was not known and could not have been predicted from existing tau imaging compounds.

Data set [3] has as its system native tau aggregates vs native β-amyloid aggregates in human brain sections. Description: Autoradiography selectivity towards tau versus β amyloid in AD human brain tissue. The format is binding. Particulars: for selectivity ratio for Tau:Aβ: 5 Tau+Aβ+ and 2 Tau-Aβ+ brain specimens; for grey matter to white matter (GM/WM) signal ratio: autoradiography, Tau+Aβ+ brain specimens; for binding sites observed in autoradiography: human brain sections Groups A, B, C. The text has this: Based on the anti-tau and anti-amyloid immunostaining results of brain sections, three groups of human brain sections are selected for autoradiography experiments to determine the native tau-binding selectivity of 3-(3-[18F]-fluoroazetidin-1-yl)-8-methylbenzo[4,5]imidazo[1,2-a]pyridine. Group A are tau-rich AD brain slices (labeled as Tau+Aβ+), Group B are tau-poor AD brain slices (marked as Tau-Aβ+), and Group C are Tau-Aβ− normal brain slices. […] The human AD brain sections in Group B are #33562, #32656, #33998, #35682, and #33563. The normal human brain sections in group C are #29092 and #32566. Tissue slices from the same donors are used to calculate selectivity for all three compounds for testing according to Assay Example 5. Autoradiography is performed for each of these three groups of brains on adjacent 10 μm sections with the amyloid tracer [18F]W372 to quantify the β-amyloid burden. [18F]W372 is a selective amyloid binding tracer discovered by Siemens and evaluated under IND 105173. Sections are covered with 0.5 ml of 3-(3-[18F]-fluoroazetidin-1-yl)-8-methylbenzo[4,5]imidazo[1,2-a]pyridine (in 2.5:2.5:95 DMSO:EtOH:1×PBS, about 20 μCi/slide) and incubated for 1.5 hrs. Then successive washing cycles (1 min PBS, 2 min 30% EtOH/PBS, 2 min 70% EtOH/PBS, 1 min PBS) are employed to remove any unbound tracer. The sections are air dried, placed on a phosphorimaging plate (Fuji IP plate), and exposed overnight. The IP plate is read using a GE Healthcare Life Sciences Typhoon FLA 7000 Phosphorimager. The signal intensity of the grey matter is measured using Fujifilm Multi Gauge software. After subtracting the background signal (signal in the cortex region of Group C), the signal of individual sections of Group A and B are normalized with corresponding signal from autoradiography of the respective adjacent sections with [18F]W372. The calculations are based on Group B brain sections #32656 and #33998, which have undetectable tau pathology by immunohistochemistry. The normalized signal for 3-(3-[18F]-fluoroazetidin-1-yl)-8-methylbenzo[4,5]imidazo[1,2-a]pyridine in Group B brain sections is the relative signal level of 3-(3-[18F]-fluoroazetidin-1-yl)-8-methylbenzo[4,5]imidazo[1,2-a]pyridine to [F-18]W372 resulting from binding to native β-amyloid aggregates. The binding level of 3-(3-[18F]-fluoroazetidin-1-yl)-8-methylbenzo[4,5]imidazo[1,2-a]pyridine to native tau-aggregates in Group A sections is estimated by subtracting the amount of the total signal attributable to binding to 3-amyloid (calculated by multiplying the total signal from [18F]W372 binding to β-amyloid in the adjacent section by the relative signal of 3-(3-[18F]-fluoroazetidin-1-yl)-8-methylbenzo[4,5]imidazo[1,2-a]pyridine to [18F]W372 determined from the Group B sections). The resulting difference is then divided by the signal attributable to binding to β-amyloid to estimate the selectivity of 3-(3-[18F]-fluoroazetidin-1-yl)-8-methylbenzo[4,5]imidazo[1,2-a]pyridine. […] The selectivity of 3-(3-[18F]-fluoroazetidin-1-yl)-8-methylbenzo[4,5]imidazo[1,2-a]pyridine binding to native tau aggregates vs. binding native β-amyloid aggregates is reflected by the ratio of Group A (Tau+Aβ+) signal to the signal of the brain sections #32656 and #33998.

The subject of another data set is tau protein. Description: Clinical PET imaging of tau protein in the brain (SUVr). The format is in vivo, human. As to conditions: AD subjects vs healthy controls. How it is done: (§1) Clinical evaluation of 3-(3-[18F]-Fluoroazetidin-1-yl)-8-methylbenzo[4,5]imidazo[1,2-a]pyridine (Compound 8) as a PET radioligand for imaging tau protein deposition in patients with AD or other neurodegenerative disorders is conducted in healthy volunteers. AD patients, or Chronic Traumatic Encephalopathy (CTE) subjects, by completion of one or more PET scans with Compound 8. Dynamic PET imaging is acquired on a Siemens ECAT EXACT HR+ over 150 minutes following Compound 8 or [18F]AV-1451 injection (0-60 and 90-150 minute imaging segments). Compound 8 or [18F]AV-1451 scans are acquired similarly in two imaging sessions. A brain MRI is also obtained. PET and MRI images are aligned and normalized, and ATLAS-based volumes of interest (VOI) are applied to the dynamic PET series. Compound 8 or [18F]AV-1451 are evaluated in terms of kinetic profile as well as target region to cerebellum standardized uptake value ratio (SUVr between 100-120 min) between healthy volunteers and AD or CTE subjects.

The nature of data set [4]: Clinical PET kinetic profile: brain uptake, washout, metabolism. It is filed as in vivo, human. Particulars: human subjects, dynamic PET. As to the method:
as §1

A word on the Ki: it is a dissociation constant, usually derived from enzyme kinetics or from competition with a known ligand. A high value points to weaker binding. In general, Kd refers to the equilibrium constant for the complex coming apart.

The compound `Cc1ccc2nc3cc(N4CC(F)C4)ccn3c2c1` [Compound 4, 3-(3-fluoroazetidin-1-yl)-8-methylbenzo[4,5]imidazo[1,2-a]pyridine] came in with an inhibition constant (Ki) in data set [1] (tau obtained from donors with Alzheimer's disease, from IC50 by Cheng-Prusoff) of 0.6 nM.

Take `COc1ccc2nc3cc(N4CCC([18F])CC4)ccn3c2c1` [Compound T798, 3-(4-[18F]-fluoropiperidin-1-yl)-8-methoxybenzo[4,5]imidazol[1,2-a]pyridine, reference compound]: the “bone uptake of radioactivity” value in data set [2] is given as “bone uptake of radioactivity increases with time”. Besides, in data set [3], the “selectivity ratio for Tau:Aβ” value is listed as “approximately 8.4±1.7”; the “grey matter to white matter (GM/WM) signal ratio” value is listed as “approximately 18.0±3.2”; the “binding sites observed in autoradiography” value is “binds to tau, amyloid, and unidentified binding sites in normal human brain”.

Consider `COc1ccc2nc3cc(N4CCC(CC[18F])CC4)ccn3c2c1` [Compound T821, 3-(4-(2-[18F]-fluoroethyl)piperidin-1-yl)-8-methoxybenzo[4,5]imidazo[1,2-a]pyridine, reference compound], for which the “bone uptake of radioactivity” value in data set [2] is given as “bone uptake of radioactivity increases with time”. In addition, in data set [3], the “selectivity ratio for Tau:Aβ” value is “approximately 2.22±0.45”; the “grey matter to white matter (GM/WM) signal ratio” value is listed as “approximately 11.7±1.2”; the “binding sites observed in autoradiography” value was “binds to tau, amyloid, and unidentified binding sites in normal human brain”.

Regarding `[18F]c1ccc(-c2ccc3c(c2)[nH]c2ccncc23)cn1` [[18F]AV-1451, reference compound], the dissociation constant (Kd) in data set [1] (value used in the Cheng-Prusoff equation, read-out: Kd, dissociation constant of the radioligand) came to 0.57 nM. Further, the “uptake in cortical brain regions, AD subjects compared with healthy controls” value in the data set on tau protein is reported as “Higher uptake”. In data set [4], the peak brain uptake is reported as roughly 6 SUV.
